Data on ten compounds can be found in ChEMBL document CHEMBL2203010, “The discovery of tropane-derived CCR5 receptor antagonists” (Chem Biol Drug Des, 2006).

Bounds are passed on as bounds.

The target of data set [1] is T1, Voltage-gated inwardly rectifying potassium channel KCNH2 (Homo sapiens, UniProt Q12809). Kind of data set: Inhibition of human ERG.
The nature of data set [2]: Dissociation constant, pKa of the compound. Format: physicochemical.
The target of data set [3] is T1, Voltage-gated inwardly rectifying potassium channel KCNH2. Kind of data set: Displacement of [3H]dofetilide from human ERG. (Displacement assays read how much labelled ligand stays bound in the presence of the test substance.)
Data set [4] has as its target C-C chemokine receptor type 5 (Homo sapiens, UniProt P51681). Put plainly: Displacement of [125I]MIP-1beta from CCR5 receptor.
Data set [5] relates to Human immunodeficiency virus 1. Put plainly: Antiviral activity against HIV1 BaL infected in peripheral blood lymphocytes assessed as inhibition of viral replication. It is filed as functional. The conditions noted are these: Human immunodeficiency virus 1, BaL.
Data set [6] deals with Human immunodeficiency virus 1. Put plainly: Antiviral activity against CCR5-tropic HIV1 clade A infected in peripheral blood lymphocytes assessed as inhibition of viral replication. Format: functional, organism-based. The following applies: Human immunodeficiency virus 1, clade A.
For a further data set, the target named is hERG (KCNH2) (Homo sapiens, UniProt Q12809). Kind of data set: Inhibition of human ERG at 1 uM.
For data set [7], the system named is Human immunodeficiency virus 1. Put plainly: Antiviral activity against CCR5-tropic HIV1 clade B infected in peripheral blood lymphocytes assessed as inhibition of viral replication. Format: functional, organism-based. The following applies: Human immunodeficiency virus 1, clade B.

C-C chemokine receptor type 5, sequence (P51681 whole entry): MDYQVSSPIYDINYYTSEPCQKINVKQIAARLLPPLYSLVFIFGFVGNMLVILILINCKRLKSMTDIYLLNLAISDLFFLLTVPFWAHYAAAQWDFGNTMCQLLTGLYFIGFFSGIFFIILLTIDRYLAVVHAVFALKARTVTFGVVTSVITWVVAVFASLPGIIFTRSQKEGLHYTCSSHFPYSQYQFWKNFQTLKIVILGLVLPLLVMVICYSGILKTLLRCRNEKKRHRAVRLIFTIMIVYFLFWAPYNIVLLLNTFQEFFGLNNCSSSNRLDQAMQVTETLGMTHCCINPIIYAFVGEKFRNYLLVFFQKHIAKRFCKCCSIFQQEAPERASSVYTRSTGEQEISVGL
T1 sequence (Q12809 whole entry): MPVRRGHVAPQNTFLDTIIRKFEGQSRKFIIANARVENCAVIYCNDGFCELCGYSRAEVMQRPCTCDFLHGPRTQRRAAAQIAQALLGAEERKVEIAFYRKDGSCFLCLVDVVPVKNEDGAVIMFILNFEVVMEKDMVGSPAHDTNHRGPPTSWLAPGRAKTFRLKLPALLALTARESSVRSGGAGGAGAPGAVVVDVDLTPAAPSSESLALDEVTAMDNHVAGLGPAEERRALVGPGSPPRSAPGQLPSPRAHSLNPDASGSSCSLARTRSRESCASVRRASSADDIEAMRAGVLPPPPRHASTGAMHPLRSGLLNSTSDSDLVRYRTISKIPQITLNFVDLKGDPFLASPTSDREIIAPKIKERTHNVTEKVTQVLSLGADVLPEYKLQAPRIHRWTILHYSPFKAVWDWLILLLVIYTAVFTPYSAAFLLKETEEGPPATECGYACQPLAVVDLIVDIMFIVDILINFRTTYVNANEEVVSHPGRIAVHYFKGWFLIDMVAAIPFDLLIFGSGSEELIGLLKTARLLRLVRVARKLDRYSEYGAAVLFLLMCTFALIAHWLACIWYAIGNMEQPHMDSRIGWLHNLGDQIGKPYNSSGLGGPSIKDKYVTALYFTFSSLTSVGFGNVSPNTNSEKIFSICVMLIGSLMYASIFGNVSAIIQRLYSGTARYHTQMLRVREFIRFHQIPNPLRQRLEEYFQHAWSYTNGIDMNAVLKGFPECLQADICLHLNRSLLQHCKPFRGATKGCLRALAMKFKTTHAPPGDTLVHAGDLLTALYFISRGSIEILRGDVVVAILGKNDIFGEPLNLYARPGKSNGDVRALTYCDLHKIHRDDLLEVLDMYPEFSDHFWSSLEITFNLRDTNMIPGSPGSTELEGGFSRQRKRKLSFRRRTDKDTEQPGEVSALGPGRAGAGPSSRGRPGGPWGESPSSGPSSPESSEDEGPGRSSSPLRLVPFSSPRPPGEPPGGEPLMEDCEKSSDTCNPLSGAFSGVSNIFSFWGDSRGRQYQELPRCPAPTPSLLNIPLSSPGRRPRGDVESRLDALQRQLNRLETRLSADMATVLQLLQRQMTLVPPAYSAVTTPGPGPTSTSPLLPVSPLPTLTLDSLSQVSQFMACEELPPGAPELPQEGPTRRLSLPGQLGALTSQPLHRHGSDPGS
hERG (KCNH2), sequence (Q12809 whole entry): as above

As usually defined, the pKa is the negative logarithm of the acid dissociation constant. As usually defined, the Ki is a dissociation constant, usually derived from enzyme kinetics or from competition with a known ligand. Read a high Ki as weaker binding. What is called IC50 is the midpoint of a concentration-inhibition curve. For `Cc1nc2ccccc2n1[C@@H]1C[C@H]2COC[C@@H](C1)N2CC[C@H](NC(=O)C1CCC1)c1ccccc1`, in data set [1], the “inhibition (INH)” value was “Active”. Besides, the pKa in data set [2] is 6. In data set [3], this compound gave a Ki of 42 nM. This compound returned a half-inhibitory concentration (IC50) in data set [4] of 9 nM.
As usually defined, the IC90 is the concentration needed for an effect of 90%. With `Cc1nc2ccccc2n1[C@@H]1C[C@@H](C)N(CC[C@H](NC(=O)C2CCC2)c2ccccc2)[C@@H](C)C1`, the “inhibition (INH)” value in data set [1] is recorded as “Active”. For the same compound, in data set [5], the concentration for an effect of 90% (IC90) is 53 nM. Further, the 50% inhibitory concentration (IC50) in data set [4] was 8 nM.
In the case of `Cc1nc2ccccc2n1C1CCN(CC[C@H](NC(=O)C2CCC2)c2ccccc2)CC1`, the IC90 in data set [5] came to 73 nM. The compound also came in with an IC50 in data set [4] of 20 nM.
As to `Cc1nc2ccccc2n1[C@@H]1C[C@H]2CC[C@@H](C1)N2CC[C@H](NC(=O)C1CCC1)c1ccccc1`, the “inhibition (INH)” value in data set [1] is recorded as “Active”. Besides, in data set [5], the IC90 turned out to be 13 nM.
As usually defined, the inhibition is the change of the read-out against control, counted positive when it falls. Read a high inhibition as a strong effect. In the case of `Cc1nc2ccccc2n1[C@H]1C[C@H]2CC[C@@H](C1)N2CC[C@H](NC(=O)C1CCC1)c1ccccc1`, the “inhibition (INH)” value in data set [1] is reported as “Active”. Besides, the 50% inhibitory concentration (IC50) in data set [6] and in data set [7] was 0.9 nM throughout. Also, the pKa in data set [2] came to 7.8. The compound also gave an inhibition at 1 µM against hERG (KCNH2) of 99%. Moreover, in data set [5], the IC90 was found to be 3 nM.
Consider `Cc1nc2ccccc2n1C1CN(CC[C@H](NC(=O)C2CCC2)c2ccccc2)C1`, for which, in data set [1], the “inhibition (INH)” value is recorded as “Active”. Besides, the half-maximal inhibitory concentration (IC50) in data set [4] was over 1000 nM.
For `Cc1nc2ccccc2n1C1[C@H]2CN(CC[C@H](NC(=O)C3CCC3)c3ccccc3)C[C@@H]12` (some centres undefined), the “inhibition (INH)” value in data set [1] is reported as “Active”. In data set [5], the IC90 was over 1000 nM. The compound also registered an IC50 in data set [4] of 17 nM.
The matching figures for `Cc1nc2ccccc2n1C1(C)CCN(CC[C@H](NC(=O)C2CCC2)c2ccccc2)CC1`: “Active”, 140 nM and 1.2 nM.
Consider `Cc1nc2ccccc2n1[C@@H]1C[C@H]2CSC[C@@H](C1)N2CC[C@H](NC(=O)C1CCC1)c1ccccc1`, for which the “inhibition (INH)” value in data set [1] is listed as “Active”. This compound displayed an IC50 in data set [4] of 21.5 nM.
The matching figures for `Cc1nc2ccccc2n1[C@H]1C[C@H]2COC[C@@H](C1)N2CC[C@H](NC(=O)C1CCC1)c1ccccc1`: “Active” and 39.7 nM.
